Several values for one entry are separate records, joined by “and”; a condition that tells them apart may be missing. Identical values can stand only once.
Key:
[1] = target: T1, Genome polyprotein (dengue virus type 2, UniProt P29990); format: functional, Thailand/16681/1984
[2] = target: T1, Genome polyprotein; format: functional, Thailand/16681/1984; remark: listed apart in the source

T1 sequence (P29990 1346-1475 limits assumed): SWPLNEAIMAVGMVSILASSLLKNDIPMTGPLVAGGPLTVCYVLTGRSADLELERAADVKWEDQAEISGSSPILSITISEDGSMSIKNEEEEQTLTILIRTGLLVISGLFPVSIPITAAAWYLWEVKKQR
T1 sequence (P29990 1476-2093 limits assumed): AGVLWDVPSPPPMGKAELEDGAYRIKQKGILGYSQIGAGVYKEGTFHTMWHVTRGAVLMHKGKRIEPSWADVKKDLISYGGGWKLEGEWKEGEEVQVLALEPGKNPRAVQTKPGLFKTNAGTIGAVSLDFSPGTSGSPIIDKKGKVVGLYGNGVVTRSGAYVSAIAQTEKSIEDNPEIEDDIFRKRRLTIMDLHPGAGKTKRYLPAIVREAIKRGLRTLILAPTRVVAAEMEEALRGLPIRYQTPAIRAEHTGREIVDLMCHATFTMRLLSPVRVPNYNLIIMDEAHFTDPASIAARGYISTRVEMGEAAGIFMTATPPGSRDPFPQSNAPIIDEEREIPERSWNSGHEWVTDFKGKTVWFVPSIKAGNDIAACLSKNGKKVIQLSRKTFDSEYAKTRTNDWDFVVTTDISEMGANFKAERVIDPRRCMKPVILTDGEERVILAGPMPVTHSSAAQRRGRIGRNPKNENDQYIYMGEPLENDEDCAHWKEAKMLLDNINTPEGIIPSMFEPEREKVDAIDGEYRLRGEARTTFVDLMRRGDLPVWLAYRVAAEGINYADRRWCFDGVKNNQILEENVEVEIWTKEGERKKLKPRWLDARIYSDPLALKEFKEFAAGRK

| Structure (SMILES) | IC50 [1] | IC50 [2] |
| --- | --- | --- |
| N#C[C@]1(Nc2ccc3c(c2)CNC3)C(=O)Nc2ccccc21 | > 99.5 µM | > 100 µM |
| O=C(Nc1ccc2c(c1)CNC2)c1ccc2c(c1)NCCO2 | > 99.5 µM | > 100 µM |
| CCc1cc(C(=O)Nc2ccc3c(c2)CNC3)sc1-c1ccc(Cl)cc1 | > 99.5 µM | > 100 µM |
| NCCCCc1ccc(NC(=O)c2cc(Cl)cc3[nH]ncc23)cc1 | > 99.5 µM | > 100 µM |
| Cc1c(C(=O)Nc2cc(CCCN)ccn2)cc(C2CCC2)n1C | > 99.5 µM | > 100 µM |
| O=C(Nc1ccc2c(c1)CNCC2)c1cc(Cl)cc2[nH]ncc12 | > 99.5 µM | > 100 µM |
| Cc1c(C(=O)Nc2cc(CCCN)ccn2)cc(C(C)C)n1C | > 99.5 µM | > 100 µM |
| O=C(Nc1ccc2c(c1)CNC2)c1ccccc1-n1cccc1 | > 99.5 µM | > 100 µM |
| CC(C)Cc1nc2c(C(=O)Nc3ccc4c(c3)CNC4)cc(Br)cc2[nH]1 | 56.2 µM | > 100 µM |
| O=C(Nc1ccc2c(c1)CNC2)c1cc(Cl)cc(-n2cccc2)c1 | > 99.5 µM | > 100 µM |
| O=C(Nc1ccc2c(c1)CNC2)c1ccn[nH]1 | > 99.5 µM | > 100 µM |
| CN1Cc2ccc(NC(=O)c3cc(Cl)cc4[nH]ncc34)cc2C1 | > 99.5 µM | > 100 µM |
| Cc1cc(CN)cc(NC(=O)c2cc(Cl)cc3[nH]ncc23)c1 | 98.3 µM | 85.4 µM |
| Cc1cc(NC(=O)c2cc(C3CC3)n(C)c2C)ncc1S(N)(=O)=O | > 99.5 µM | > 100 µM |
| O=C(O)C[C@H]1CN(c2ccc(-c3cc(Cl)cc(NC(=O)OCc4ccccc4)c3)cn2)CCO1 | 35.2 µM | 22.2 µM |
| O=C(Nc1ccc2c(c1)CNC2)C1CCCCC1 | > 99.5 µM | > 100 µM |
| CC(C)NC(=O)[C@H](Nc1ccc2c(c1)CNC2)c1cc(Cl)cc2[nH]ncc12 | 64 µM and 37.2 µM and 98.4 µM | 96.5 µM and 41.2 µM and > 100 µM and 26.4 µM |
| O=C(Nc1ccc2c(c1)CNC2)c1cc(Br)cc2ccccc12 | > 99.5 µM | > 100 µM |
| Cc1c(C(=O)NCc2ccc(CN)cc2)cc(C2CC2)n1C | > 99.5 µM | > 100 µM |
| O=C(Nc1cc(Cl)cc(-c2cnn(Cc3ccc(C(=O)O)cc3)c2)c1)OCc1ccccc1 | 18.2 µM | 8.1 µM |
| NCc1cc(NC(=O)c2cc(Cl)cc(NC(=O)OCc3ccccc3)c2)cc(C2=CC[C@H](C(=O)O)CC2)c1 | > 99.5 µM | > 100 µM |
| C=C1C[C@H](c2cc(Cl)cc(NC(=O)OCc3ccccc3)c2)[C@@H](c2cccc(-c3nn[nH]n3)c2)C1 | 6.29 µM | 5.18 µM |

| Structure (SMILES) | IC50 [1] | IC50 [2] |
| --- | --- | --- |
| O=C(Nc1ccc2c(c1)CNC2)c1cc(Cl)cc(C2CC2)c1 | > 99.5 µM | > 100 µM |
| NCc1cc(NC(=O)c2cc(Cl)cc(NC(=O)OCc3ccccc3)c2)cc(-c2csc(CC(=O)O)c2)c1 | 64.7 µM | > 100 µM |
| O=C(Nc1ccc2c(c1)CNC2)c1cc(Cl)cc2c1CCC2 | > 99.5 µM | > 100 µM |
| Cc1c(C(=O)Nc2cc(-c3ccccn3)c(Br)cn2)cc(C2CC2)n1C | > 99.5 µM | > 100 µM |
| O=C(O)c1cc2cc(-c3cc(Cl)cc4ncccc34)ccc2[nH]1 | 41.5 µM | 50.9 µM |
| O=C(O)c1cc2cccc(Cc3c[nH]c4ccc(Cl)cc34)c2[nH]1 | 52.1 µM | 21.6 µM |
| NCc1nc2cc(Cl)ccc2n1Cc1ccc(-c2nn[nH]n2)cc1 | > 99.5 µM | > 100 µM |
| O=C(Nc1ccc2c(c1)CNC2)c1n[nH]c(=O)c2ccccc12 | 36.8 µM | > 100 µM |
| FC(F)(F)Oc1cc(Cl)cc2c(Cc3ccc(-c4nnn[nH]4)cc3)c[nH]c12 | 12.6 µM | 7.84 µM |
| O=C1OCc2ccc(NC(=O)c3cc(Cl)cc4[nH]ncc34)cc21 | > 99.5 µM | > 100 µM |
| O=C(Nc1ccc2c(c1)CNC2)c1n[nH]c2ncc(Br)cc12 | > 99.5 µM | > 100 µM |
| Cc1c(C(=O)Nc2cc(-c3cnn(C)c3)ccn2)cc(C2CC2)n1C | > 99.5 µM | > 100 µM |
| N#Cc1cc(-c2ccc3[nH]c(C(=O)O)cc3c2)c2nc[nH]c2c1 | > 99.5 µM | > 100 µM |
| CCCc1sc(C(=O)Nc2ccc3c(c2)CNC3)cc1CC | > 99.5 µM | > 100 µM |
| Cc1c(C(=O)Nc2cc(C(N)=O)c3ccccc3n2)cc(C2CC2)n1C | > 99.5 µM | > 100 µM |
| O=C(Nc1ccc2c(c1)CNC2)c1ccccn1 | > 99.5 µM | > 100 µM |
| N#Cc1ccc(Cl)c(C(=O)Nc2ccc3c(c2)CNC3)c1 | > 99.5 µM | > 100 µM |
| CNCc1ccc(NC(=O)c2cc(Cl)cc3[nH]ncc23)cc1 | > 99.5 µM | > 100 µM |
| Cc1c(C(=O)Nc2nccc3c2CNCC3)cc(C2CC2)n1C | > 99.5 µM | > 100 µM |
| Cc1c(C(=O)Nc2cc(CCCN)ccn2)cc(C2CCCCC2)n1C | > 99.5 µM | > 100 µM |
| O=C(Nc1ccc2c(c1)CNC2)c1cc(Br)cc2[nH]c(-c3ccccc3)nc12 | 2.73 µM and 2.34 µM | 5.95 µM and 6.13 µM |

From ChEMBL document CHEMBL5604063, “ASAP - DENV-2 NS2B-NS3 protease fluorescence dose response” (2024)
